Here are results for 8 compounds from US20130253019A1, “LYSOPHOSPHATIDIC ACID RECEPTOR ANTAGONISTS FOR THE TREATMENT OF CONDITIONS OR DISEASES OF THE EYE” (priority 2010, published 2013).

Structures are written as SMILES. pIC50: −log10 of the molar value.

What is called pIC50 is −log10 of the IC50, conventionally taken in molar units.

The target in one assay is T1, human LPA2 (Homo sapiens, UniProt Q9HBW0).
T1 construct: expressed in transfected cells; host or cells: B103 cells (transient), or alternatively BT-20 human breast cancer cells (endogenous)
T1 sequence (Q9HBW0 whole entry): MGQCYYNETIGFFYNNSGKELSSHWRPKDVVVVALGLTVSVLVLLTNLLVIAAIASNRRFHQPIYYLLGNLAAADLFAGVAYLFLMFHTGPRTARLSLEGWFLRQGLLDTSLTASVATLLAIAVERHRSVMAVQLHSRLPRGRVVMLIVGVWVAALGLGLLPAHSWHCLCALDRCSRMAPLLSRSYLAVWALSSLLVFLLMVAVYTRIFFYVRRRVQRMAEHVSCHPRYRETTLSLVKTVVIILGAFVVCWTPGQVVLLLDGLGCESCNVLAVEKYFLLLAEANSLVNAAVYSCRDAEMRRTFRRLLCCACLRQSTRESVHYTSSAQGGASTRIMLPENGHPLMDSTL
Description: LPA2 calcium flux assay. Format: cell-based. The following applies: BT-20 cells or B103 cells transiently expressing human LPA2; read-out: Ca Flux IC50 LPA2. On the procedure: An expression vector encoding the human LPA2 cDNA was transiently transfected into B103 cells using Lipofectamine™ 2000 (Invitrogen) following the manufacturers instruction. On the day before the assay, 30,000-35,000 cells/well were seeded together with 0.2 μl lipofectamine 2000 and 0.2 μg human LPA2 expression vector in 96-well Poly-D-Lysine coated black-wall clear-bottom plates (BD BioCoat) in DMEM+10% FBS. Following an overnight culture, cells were washed once with PBS then cultured in serum-free media for 4 hours prior to start of the calcium flux assay.
LPA2 calcium flux is measured using at least one of two different assays. In one assay, BT-20 human breast cancer cells are seeded at 25,000-35,000 cells per well in 150 μl complete media on Poly-D-Lysine coated black-wall clear-bottom plates. Following an overnight culture, cells are washed once with PBS then serum starved for 4-6 hours prior to the assay. On the day of the assay, a calcium indicator dye (Calcium 5, Molecular Devices) in assay buffer (HBSS with Ca^2+ and Mg^2+ and containing 20 mM Hepes and 0.3% fatty-acid free human serum albumin) is added to each well and incubation continued for 15 minutes at 37° C. 25 μl of test compounds in 2.5% DMSO are added to the cells and incubation continued at 37° C. for 15-30 minutes. Cells are the stimulated by the addition of 100 nM LPA and intracellular Ca^2+ measured using the Flexstation 3 (Molecular Devices). IC50s are determined using Symyx Assay Explorer analysis of drug titration curves In the second assay, B103 cells transiently expressing huma LPA2 are serum starved for 4 hours. A calcium indicator dye (Calcium 4, Molecular Devices) in assay buffer (HBSS with Ca^2+ and Mg^2+ and containing 20 mM Hepes and 0.3% fatty-acid free human serum albumin) is then added to each well and incubation continued for 1 hour at 37° C. 10 μl of test compounds in 2.5% DMSO are added to the cells and incubation continued at room temperature for 30 minutes. Cells are the stimulated by the addition of 10 nM LPA and intracellular Ca^2+ measured using the Flexstation 3 (Molecular Devices). IC50s are determined using Symyx Assay Explorer analysis of drug titration curves.
In general terms: Calcium assays in cells follow changes in intracellular calcium, usually with a dye or a luminescent sensor.

A further assay deals with LPA4 (Homo sapiens, UniProt Q99677). Put plainly: LPA4 Ca flux assay. Format: cell-based.
Chain of LPA4 (Q99677 whole entry, species assumed): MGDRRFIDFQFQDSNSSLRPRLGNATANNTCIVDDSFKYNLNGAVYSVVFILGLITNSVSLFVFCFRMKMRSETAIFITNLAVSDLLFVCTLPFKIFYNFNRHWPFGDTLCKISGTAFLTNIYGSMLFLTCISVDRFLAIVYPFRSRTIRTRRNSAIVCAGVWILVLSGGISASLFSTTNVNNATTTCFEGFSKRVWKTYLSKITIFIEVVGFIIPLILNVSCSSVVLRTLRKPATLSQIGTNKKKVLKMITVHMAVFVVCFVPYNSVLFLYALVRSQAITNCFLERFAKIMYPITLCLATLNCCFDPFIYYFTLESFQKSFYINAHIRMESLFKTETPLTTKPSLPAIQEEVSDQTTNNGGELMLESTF
The next assay addresses LPA5 (Homo sapiens, UniProt Q9H1C0). Description: LPA5 Ca flux assay. The assay is classed as cell-based.
For the next assay, the target named is T2, Human LPA1 (Homo sapiens, UniProt Q92633).
T2 construct: the full-length cDNA for human LPA1 was obtained by PCR of the reverse transcription reaction; expressed in transfected cells
T2 sequence (Q92633 whole entry): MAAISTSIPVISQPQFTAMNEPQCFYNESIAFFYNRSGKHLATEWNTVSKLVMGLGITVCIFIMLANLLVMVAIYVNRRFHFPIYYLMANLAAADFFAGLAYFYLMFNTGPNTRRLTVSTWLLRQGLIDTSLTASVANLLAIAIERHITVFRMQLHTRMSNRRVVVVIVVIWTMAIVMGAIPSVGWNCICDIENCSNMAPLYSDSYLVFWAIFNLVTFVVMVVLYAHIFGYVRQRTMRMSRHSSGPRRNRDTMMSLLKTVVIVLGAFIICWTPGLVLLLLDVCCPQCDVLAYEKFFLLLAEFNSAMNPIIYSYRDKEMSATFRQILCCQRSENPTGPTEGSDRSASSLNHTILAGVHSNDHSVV
Description: LPA1 calcium flux assay. Format: cell-based. The settings on record: CHO cells expressing human LPA1, 10 nM LPA; read-out: Ca Flux IC50 LPA1. On the procedure: A 1.1 kb cDNA encoding the human LPA1 receptor was cloned from human lung. Human lung RNA (Clontech Laboratories, Inc. USA) was reverse transcribed using the RETROscript kit (Ambion, Inc.) and the full-length cDNA for human LPA1 was obtained by PCR of the reverse transcription reaction. The nucleotide sequence of the cloned human LPA1 was determined by sequencing and confirmed to be identical to the published human LPA1 sequence (An et al. Biochem. Biophys. Res. Commun. 231:619 (1997). The cDNA was cloned into the pcDNA5/FRT expression plasmid and transfected in CHO cells using lipofectamine 2000 (Invitrogen Corp., USA). Clones stably expressing human LPA1 were selected using hygromycin and identified as cells that show Ca-influx in response to LPA.
(§1) Human LPA1 or LPA3 expressing CHO cells are seeded at 20,000-45,000 cells per well in a 96-well poly-D-lysine coated plate one or two days before the assay. Prior to the assay, the cells are washed once with PBS and then cultured in serum-free media for at least 6 hrs and up to 24 hrs. On the day of the assay, a calcium indicator dye (Calcium 5, Molecular Devices) in assay buffer (HBSS with Ca^2+ and Mg^2+ and containing 20 mM Hepes and 0.3% fatty-acid free human serum albumin) is added to each well and incubation continued for 1 hour at room temperature. 10 μl of test compounds in 2.5% DMSO are added to the cells and incubation continued at room temperature for 30 minutes. Cells are the stimulated by the addition of 10 nM LPA and intracellular Ca^2+ measured using the Flexstation 3 (Molecular Devices). IC50s are determined using Symyx Assay Explorer analysis of drug titration curves.

The next assay addresses T3, Human LPA3 (Homo sapiens, UniProt Q9UBY5).
T3 construct: The full-length cDNA fragment for human LPA3 was obtained by PCR from the vector; expressed in transfected cells; cDNA from the Missouri S&T cDNA Resource Center
T3 sequence (Q9UBY5 1-353): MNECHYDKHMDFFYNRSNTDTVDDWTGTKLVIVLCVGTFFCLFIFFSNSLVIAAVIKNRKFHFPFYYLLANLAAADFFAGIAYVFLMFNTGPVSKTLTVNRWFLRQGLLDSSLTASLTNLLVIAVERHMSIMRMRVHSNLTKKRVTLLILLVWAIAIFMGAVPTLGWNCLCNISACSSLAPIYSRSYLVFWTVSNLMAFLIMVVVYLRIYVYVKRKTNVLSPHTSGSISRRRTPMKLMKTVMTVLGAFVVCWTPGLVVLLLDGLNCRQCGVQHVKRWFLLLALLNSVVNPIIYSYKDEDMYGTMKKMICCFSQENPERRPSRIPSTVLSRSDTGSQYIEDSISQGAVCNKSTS
Description: LPA3 calcium flux assay. Format: cell-based. The following applies: CHO cells expressing human LPA3, 10 nM LPA; read-out: Ca Flux IC50 LPA3. On the procedure:
A vector containing the human LPA3 receptor cDNA was obtained from the Missouri S&T cDNA Resource Center (www.cdna.org). The full-length cDNA fragment for human LPA3 was obtained by PCR from the vector. The nucleotide sequence of the cloned human LPA3 was determined by sequencing and confirmed to be identical to the published human LPA3 sequence (NCBI accession number NM_012152). The cDNA was cloned into the pcDNA5/FRT expression plasmid and transfected in CHO cells using lipofectamine 2000 (Invitrogen Corp., USA). Clones stably expressing human LPA3 were selected using hygromycin and identified as cells that show Ca-influx in response to LPA.
as §1

The next assay has as its system CNV lesion. The following applies: po, 30 mg/kg, 336 h.

Chain of LPA5 (Q9H1C0 whole entry, species assumed): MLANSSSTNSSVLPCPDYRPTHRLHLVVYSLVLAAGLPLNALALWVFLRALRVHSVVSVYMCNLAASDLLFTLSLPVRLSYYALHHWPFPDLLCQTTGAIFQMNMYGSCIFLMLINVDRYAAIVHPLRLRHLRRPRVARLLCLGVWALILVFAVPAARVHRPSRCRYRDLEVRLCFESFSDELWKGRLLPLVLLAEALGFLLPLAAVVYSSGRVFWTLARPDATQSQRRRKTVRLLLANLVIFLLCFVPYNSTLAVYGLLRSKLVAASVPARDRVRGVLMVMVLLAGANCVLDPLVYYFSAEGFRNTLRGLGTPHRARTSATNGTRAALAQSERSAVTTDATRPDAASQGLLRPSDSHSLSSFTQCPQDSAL

With `Cc1noc(-c2ccc(-c3ccc(CC(=O)O)cc3)cc2)c1NC(=O)O[C@H](C)c1ccccc1` [Compound A, (R)-2-(4′-(3-methyl-4-((1-phenylethoxy)carbonylamino)isoxazol-5-yl)biphenyl-4-yl)acetic acid], the pIC50 at human LPA2 was under 6.00; on LPA4, under 6.00; on LPA5, under 6.00; on Human LPA1 it was over 6.70; on Human LPA3, under 6.00.

Turning to `Cc1noc(-c2ccc(-c3ccc(C4(C(=O)O)CC4)cc3)cc2)c1NC(=O)O[C@H](C)c1ccccc1` [Compound B, (R)-1-(4′-(3-methyl-4-((1-phenylethoxy)carbonylamino)isoxazol-5-yl)biphenyl-4-yl)cyclopropanecarboxylic acid], the pIC50 is under 6.00 at human LPA2; under 6.00 against LPA4; under 6.00 at LPA5; over 6.70 on Human LPA1; under 6.00 on Human LPA3. The “decrease of CNV lesion volume” value with CNV lesion is reported as 11%.

As to `Cc1noc(-c2ccc(-c3ccc(CC(=O)O)cc3)cc2)c1NC(=O)O[C@H](C)c1ccccc1Cl` [Compound C, (R)-2-(4′-(4-((1-(2-chlorophenyl)ethoxy)carbonylamino)-3-methylisoxazol-5-yl)biphenyl-4-yl)acetic acid], the negative-log IC50 (pIC50) on human LPA2 is under 6.00; against LPA4, under 6.00; against LPA5, under 6.00; on Human LPA1, over 6.70; at Human LPA3 it was under 6.00.

Take `Cc1noc(-c2ccc(-c3ccc(C4(C(=O)NS(C)(=O)=O)CC4)cc3)cc2)c1NC(=O)O[C@H](C)c1ccccc1` [Compound D, {5-[4′-(1-Methanesulfonylaminocarbonyl-cyclopropyl)-biphenyl-4-yl]-3-methyl-isoxazol-4-yl}-carbamic acid (R)-1-phenyl-ethyl ester]: the negative-log IC50 (pIC50) on human LPA2 was 6.00 to 6.70; on LPA4 it was under 6.00; at LPA5 it was under 6.00; on Human LPA1, over 6.70; on Human LPA3, under 6.00.

`Cc1noc(-c2ccc(-c3ccc(C4(C(=O)O)CC4)cc3)cc2)c1NC(=O)O[C@H](C)c1ccccc1Cl` [Compound E, 1-(4′-{4-[(R)-1-(2-Chloro-phenyl)-ethoxycarbonylamino]-3-methyl-isoxazol-5-yl}-biphenyl-4-yl)-cyclopropanecarboxylic acid]: the pIC50 was under 6.00 on human LPA2, under 6.00 on LPA5, over 6.70 at Human LPA1 and 6.00 to 6.70 on Human LPA3.

As to `C[C@@H](OC(=O)Nc1cnoc1-c1ccc(-c2ccc(C3(C(=O)O)CC3)cc2)cc1)c1ccccc1` [Compound F, 1-{4′-[4-((R)-1-Phenyl-ethoxycarbonylamino)-isoxazol-5-yl]-biphenyl-4-yl}-cyclopropanecarboxylic acid], the results for the negative logarithm of the IC50 (pIC50) on LPA4, at Human LPA1 and on Human LPA3 were under 6.00, over 6.70 and under 6.00, respectively.

For the compound `Cc1noc(-c2ccc(-c3ccc(C4(c5nc(=O)o[nH]5)CC4)cc3)cc2)c1NC(=O)O[C@H](C)c1ccccc1` [Compound G, (3-Methyl-5-{4′-[1-(5-oxo-2,5-dihydro-[1,2,4]oxadiazol-3-yl)-cyclopropyl]-biphenyl-4-yl}-isoxazol-4-yl)-carbamic acid (R)-1-phenyl-ethyl ester], the pIC50 on human LPA2 is under 6.00; on LPA4, under 6.00; against LPA5, under 6.00; on Human LPA1, over 6.70; at Human LPA3, under 6.00.

As to `Cc1noc(-c2ccc(-c3ccc(C4(c5nnn[nH]5)CC4)cc3)cc2)c1NC(=O)O[C@H](C)c1ccccc1` [Compound H, (3-Methyl-5-{4′-[1-(1H-tetrazol-5-yl)-cyclopropyl]-biphenyl-4-yl}-isoxazol-4-yl)-carbamic acid (R)-1-phenyl-ethyl ester], the pIC50 on human LPA2 is under 6.00; against LPA4, under 6.00; on LPA5 it was under 6.00; on Human LPA1, over 6.70; at Human LPA3, under 6.00.
